This is an account of results in US20100119589A1, “LIPOSOMAL COMPOSITION OF ANTIOXIDANTS FOR INHALATIONS CARRIED OUT DURING LUNG AND UPPER RESPIRATORY TRACT DISEASES” (OTKRYTOE AKTSIONERNOE OBSCHESTVO ZAVOD EKOLOGICHES, priority 2006, published 2010).

In series [1] the test system is multi lamellar vesicles of soybean phosphatidylcholine (PCh). The experiment in a line: Inhibition of peroxidic oxidation of lipids (POL): TBA-sensitive products in soybean phosphatidylcholine liposomes. The class given is biochemical. As to the method:
The antioxidative activity of preparations with varying combinations of the ingredients was evaluated on the basis of their effect on the increase of concentration of POL products (malondialdehyde or products that are sentitive to thiobarbituric acid (TBA)) in an aqueous dispersion of soybean phospholipids. For this evaluation the concentration in the soybean phospatidylcholine liposomes was measured at an initial moment and after incubation at 37° C. for 60 min. in the absence and presence of POL starters, namely, Fe^3+ ions and ascorbate.
Originally a 2.0 percent aqueous dispersion of phospholipides with antioxidants, where wheat germ oil is also present, contains an insignificant amount of products sensitive to TBA (0.8 nmol/ml). This amount rises to 2-2.5 times as much as a result of heating for 60 min. When starters are added to the original system the concentration of POL products rises to 40 nmol/ml during incubation at 37° C. for 60 min., i.e., will be […] as high.
Increase of the amount of products sensitive to TBA [nmol/ml] in multi lamellar vesicles of soybean phosphatidylcholine (PCh) containing N-acetyl-L-cysteine as a result of oxidation, the latter caused by introduction of an oxidation starter Pe3+/ascorbat (60 min, 37° C.) into the system, in the absence and presence of various antioxidants (AO).

For series [2] the following is noted: in tablets; cited from earlier work.

For `O=C1O[C@H]([C@@H](O)CO)C(O)=C1O` [ascorbic acid], the minimum inhibiting concentration in series [1] (POL inhibition, ascorbic acid alone) was determined as 2500 µg/mL. Also, in series [1] (wheat germ oil and ascorbic acid simultaneously present), the “decrease of the concentration of the acid when wheat germ oil is simultaneously present” value is given as 5 times. For the molecule vitamin E, the bioavailability in series [2] was 3%. With `O=C1c2c(O)cc(O)cc2O[C@H](c2ccc(O)c(O)c2)[C@H]1O` [dihydroquercetin], the minimum effective concentration in series [1] (POL inhibition) turned out to be 0.03 mg/mL. Moreover, the “antioxidant activity when wheat germ oil was added” value in series [1] (wheat germ oil added to dihydroquercetin) is recorded as “decreased”.

Broadly, the bioavailability is the share of a dose that reaches the circulation, judged against a reference dose that is usually intravenous.
